Measured values taken from patent US20260053932A1, “COMPOUNDS AND METHODS FOR THE TARGETED DEGRADATION OF ANDROGEN RECEPTOR AND ASSOCIATED METHODS OF USE” (Arvinas Operations, Inc., priority 2020, published 2026).

test system: androgen receptor (AR) in LNCaP and/or VCaP cells; test: Androgen Receptor ELISA assay (AR degradation); format: cell-based; conditions: LNCaP and/or VCaP cells; 5 hours incubation; media with R1881; read-out: DC50 Code* (degradation of AR ELISA)
In short: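 VCaP cells grown ≥3 days, then treated 5 h with compound in media containing 1 nM R1881 (10× stock). Cells lysed and AR quantified by sandwich ELISA (mouse AR detection Ab, HRP anti-mouse, TMB). DC50 and Dmax derived from AR degradation.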

DC50 [nM] | Compound
< 1 | CC(C)N(CC1CCN(c2ncc(C(=O)N[C@H]3CC[C@H](Oc4ccc(C#N)c(Cl)c4)CC3)cn2)CC1)[C@H]1C[C@H](Oc2ccc3c(c2)C(=O)N(C2CCC(=O)NC2=O)C3)C1 (stereo partly shown) [Compound 60, N-((1r,4r)-4-(3-chloro-4-cyanophenoxy)cyclohexyl)-2-(4-((((1r,3r)-3-((2-(2,6-dioxopiperidin-3-yl)-3-oxoisoindolin-5-yl)oxy)cyclobutyl) (isopropyl)amino)methyl)piperidin-1-yl)pyrimidine-5-carboxamide]

same assay, conditions: degradation of AR ELISA in LNCaP and/or VCaP cells; Table 2C; read-out: DC50 Code*

DC50 [nM] | Compound
< 1 | CC(C)N(CC1CCN(c2cnc(C(=O)N[C@H]3C(C)(C)[C@H](Oc4ccc(C#N)c(Cl)c4)C3(C)C)cn2)CC1)[C@H]1C[C@H](Oc2ccc3c(c2)C(=O)N(C2CCC(=O)NC2=O)C3)C1 (stereo partly shown) [compound 123, N-((1r,3r)-3-(3-chloro-4-cyanophenoxy)-2,2,4,4-tetramethylcyclobutyl)-5-(4-((((1r,3r)-3-((2-(2,6-dioxopiperidin-3-yl)-3-oxoisoindolin-5-yl)oxy)cyclobutyl) (isopropyl)amino)methyl)piperidin-1-yl)pyrazine-2-carboxamide]
< 1 | Cc1cc(O[C@H]2C(C)(C)[C@H](NC(=O)c3ccc(N4CCC(CN(C)[C@@H]5CC[C@@H](Oc6ccc7c(c6)C(=O)N(C6CCC(=O)NC6=O)C7=O)C5)CC4)cc3)C2(C)C)cc(C)c1C#N (stereo partly drawn) [compound 161, N-((1r,3R)-3-(4-cyano-3,5-dimethylphenoxy)-2,2,4,4-tetramethylcyclobutyl)-4-(4-((((1R,3R)-3-((2-(2,6-dioxopiperidin-3-yl)-1,3-dioxoisoindolin-5-yl)oxy)cyclopentyl) (methyl)amino)methyl)piperidin-1-yl)benzamide]
< 1 | Cc1cc(O[C@H]2C(C)(C)[C@H](NC(=O)c3ccc(N4CCC(CN5CCOC[C@H]5COc5ccc6c(c5)C(=O)N(C5CCC(=O)NC5=O)C6=O)CC4)cc3)C2(C)C)cc(C)c1C#N (stereo partly drawn) [compound 221, N-((1r,3S)-3-(4-cyano-3,5-dimethylphenoxy)-2,2,4,4-tetramethylcyclobutyl)-4-(4-(((3S)-3-(((2-(2,6-dioxopiperidin-3-yl)-1,3-dioxoisoindolin-5-yl)oxy)methyl)morpholino)methyl)piperidin-1-yl)benzamide]
< 1 | Cc1cc(O[C@H]2C(C)(C)[C@H](NC(=O)c3ccc(CN4CCOC[C@@H]4CN(C)[C@H]4C[C@H](Oc5ccc6c(c5)C(=O)N(C5CCC(=O)NC5=O)C6=O)C4)cc3)C2(C)C)cc(C)c1C#N (stereo partly drawn) [compound 148, N-((1r,3R)-3-(4-cyano-3,5-dimethylphenoxy)-2,2,4,4-tetramethylcyclobutyl)-4-(((3R)-3-((((1r,3R)-3-((2-(2,6-dioxopiperidin-3-yl)-1,3-dioxoisoindolin-5-yl)oxy)cyclobutyl) (methyl)amino)methyl)morpholino)methyl) benzamide]
< 1 | Cc1cc(O[C@H]2C(C)(C)[C@H](NC(=O)c3cnc(N4CCC(CCN5CC(Oc6ccc7c(c6)C(=O)N(C6CCC(=O)NC6=O)C7=O)C5)CC4)nc3)C2(C)C)cc(C)c1C#N (stereo partly shown) [compound 85, N-((1r,3r)-3-(4-cyano-3,5-dimethylphenoxy)-2,2,4,4-tetramethylcyclobutyl)-2-(4-(2-(3-((2-(2,6-dioxopiperidin-3-yl)-1,3-dioxoisoindolin-5-yl)oxy)azetidin-1-yl)ethyl)piperidin-1-yl)pyrimidine-5-carboxamide]

Compound | DC50 [nM]
COCCN(CC1CCN(c2ccc(C(=O)NC3C(C)(C)C(Oc4ccc(C#N)c(OC)c4)C3(C)C)cc2)CC1)C1CC(Oc2ccc3c(c2)C(=O)N([C@@H]2CCC(=O)NC2=O)C3=O)C1 (stereo partly shown) [compound 101, N-((1r,3r)-3-(4-cyano-3-methoxyphenoxy)-2,2,4,4-tetramethylcyclobutyl)-4-(4-((((1r,3r)-3-((2-(2,6-dioxopiperidin-3-yl)-1,3-dioxoisoindolin-5-yl)oxy)cyclobutyl)(2-methoxyethyl)amino)methyl)piperidin-1-yl)benzamide] | < 1
